The subject of one test is B16 melanoma. As to conditions: subcutaneous transplantation; cited from earlier work.
A further test has as its system S180 sarcoma. As to conditions: subcutaneous transplantation; cited from earlier work.
The next test relates to NK and IL-2 activity. Particulars: oral; lung cancer implanted mice and normal mice; cited from earlier work.
Another test concerns LEWIS lung cancer. Particulars: subcutaneous transplantation; cited from earlier work.
Another test has as its system MADB106 tumor cells. In words: Pulmonary metastasis count after tail vein injection of MADB106 tumor cells, with or without β-receptor agonist MP. Format: in vivo, Fischer rats. Particulars: for effect of β-receptor agonist on number of MADB106 metastases (in words): MP injected at tumor cell inoculation. The method, then:
3. The experimental animals were divided into a test group and a control group. The animals in the test group were fed with 0.1, 0.5, 2 g/kg body weight ACNO mixed and standard powdered rodent food to which water was added (test food), every day. The animals in the control group received the same wet food mixture without ACNO (control food) in the same amount. All animals were fed at regular times every day. To adjust animals to the feeding protocol, all rats received the wet mixture without ACNO for 3 days before each experiment. Thereafter, the animals were fed test food and control food, respectively. Rats from all groups consumed more than 95% of the food each day. Approximately 70% of it was consumed during the dark phase. Body weight of each animal was monitored twice a week during the experiment. 4. MADB106 tumor cell—MADB106 cell was obtained from a pulmonary metastasis of a mammary adenocarcinoma (MADB100) by a special incubation. 5. Induction and counting of tumor metastasis—Rats were lightly anesthetized with halothane, and then 10^5 MADB106 tumor cells were injected into their tail vein. […] Rats were anesthetized with halothane after they were fed with ACNO for 3 weeks counted from the day of tumor inoculation, and their lungs were removed and placed in Bouin solution (72% saturated picric acid solution, 23% formaldehyde [37% solution] and 5% glacial acetic acid) for 24 h. Thereafter, the lungs were washed with ethanol, and then the cell number of pulmonary metastasis were counted by two experimenters unaware of the group origin (in a blind technique), independently. The obtained data were analyzed statistically. […] healthy […] Fischer rats that were 7-8 weeks old and of 120-170 g body weight (48 females and 61 males), were randomly divided into 2 groups, an experiment group and a control group. […] Thereafter, the lungs were washed with ethanol, and then the cell number of pulmonary metastasis were counted by two experimenters unaware of the group origin (in a blind technique), independently. The obtained data were analyzed statistically.

As for `CC(C)=CCC[C@](C)(O)[C@H]1CC[C@]2(C)[C@@H]1[C@H](O)C[C@@H]1[C@@]3(C)CC[C@H](O[C@@H]4O[C@H](CO)[C@@H](O)[C@H](O)[C@H]4O[C@@H]4O[C@H](CO)[C@@H](O)[C@H](O)[C@H]4O)C(C)(C)[C@@H]3CC[C@]12C` [Rg3, ginsenoside Rg3], the inhibition rate in the test with B16 melanoma, in the test on S180 sarcoma and in the test with LEWIS lung cancer was 50-60% each time. The IL-2 activity entry with NK and IL-2 activity was “remarkably enhance”. The NK activity entry in the test on NK and IL-2 activity is recorded as “remarkably enhance”.

`CC(C)NCC(O)c1cc(O)cc(O)c1` (centres unmarked) [MP, Metaproterenol]: the “effect of β-receptor agonist on number of MADB106 metastases (in words)” value is reported as “significantly increased the cells number of metastases” in the test with MADB106 tumor cells and “significantly increased the number of metastases” in the test on MADB106 tumor cells (listed as Metaproterenol). Also, the “cell number of MADB106 metastases” value in the test on MADB106 tumor cells (control food plus MP injection, NS controls 70+14) is 255+32.

The record behind these values is patent publication US6911221B2, “Anti-neoplastic drug” (priority 2001, dated 2005).
